Experimental data taken from patent US20200016163A1, “TREATMENT OF DEMENTIA WITH CANNABINOID AGONISTS” (priority 2017, published 2020).
“Also recorded” adds a separate entry of the source.

Columns and labels:
[1] = test system: lesion of cholinergic cells of nucleus basalis magnocellularis in rats (model of irreversible Alzheimer-type dementia); test: Barnes maze (spatial memory) in rats with 192 IgG-saporin lesion of the nucleus basalis magnocellularis, 1 round of training sessions; format: in vivo, Sprague Dawley rats; conditions: 5 administrations
Text: The animal model used is the lesion of cholinergic cells of nucleus basalis magnocellularis in rats to cause memory loss that is sustained over time. It is a recognized model of irreversible-type dementia, specifically of irreversible Alzheimer-type dementia.
(§1) More specifically, a bilateral lesion was generated in the nucleus basalis magnocellularis in the brain of male Sprague Dawley rats (male 150-200 g) by means of stereotaxic coordinates (bregma −1.5 mm anteroposterior, ±3 mm laterodorsal and −8 mm ventral from the surface of the cranium) by injecting toxin 192 IgG-saporin (Merck-Millipore. Ref:MAB390) (SAP, n=30) (135 ng/μl/hemisphere; 0.25 μl/min) dissolved in artificial cerebrospinal fluid (CSF, n=28) (148 mM NaCl, 2.7 mM KCl, […], 1.2 mM CaCl2.2H2O; pH 7.4 adjusted with 1 mM K2HPO4) and the same method was carried out for the lesion control group but in this case only CSF (1 μl/hemisphere) was injected. Finally, as control of the latter, another group of animals was used which only received the injection of the needle and no compound was administered (SHAM, n=7). To stabilize the lesion process, the animals were not handled for one week. […] The compound is dissolved in DMSO:Cremophor:saline according to ratio [1:1:18].
The test used to evaluate the cognitive deficit of these models was the Barnes maze, which measures spatial memory. It is a circular maze with 20 holes on the periphery and only one of them has an escape box. When the animal finds this box, it is returned to its cage. This method is performed four times a day for four days (16 training sessions). On the fifth day, the hole leading to the escape box is covered and the animal explores the maze for three minutes for the purpose of finding this hole (test). The time in the target quadrant will be evaluated in the test. This parameter indicates if the animal accurately remembers where the escape hole is located because it will spend more time in the quadrant containing said hole (target quadrant). This parameter was analyzed by means of SMART 3.0 video-tracking software. Compared to other types of behavioral tests that evaluate memory in rodents, this test has the advantage that there is no aversive stimulus with which effects relating to fear and anxiety may interfere, which thereby prevents confusing anxiolytic effects with cognitive enhancing effects.

[2] = test system: lesion of cholinergic cells of nucleus basalis magnocellularis in rats (model of irreversible Alzheimer-type dementia); test: Barnes maze in 192 IgG-saporin lesioned rats, 2 rounds of training sessions (second round with treatment); format: in vivo, Sprague Dawley rats; conditions: SAP* rats with previously shown deficit (SAP*+WIN); new escape hole, 0.5 mg/kg i.p. on 4 training days and test day from day 18
Procedure: as §1
The test used to evaluate the cognitive deficit of these models was the Barnes maze, which measures spatial memory. It is a circular maze with 20 holes on the periphery and only one of them has an escape box. When the animal finds this box, it is returned to its cage. […] The time in the target quadrant will be evaluated in the test. […] This parameter was analyzed by means of SMART 3.0 video-tracking software. […]

Structure (SMILES)	effect of CB1 antagonist co-administration on the WIN55,212-2 effect, time in the target quadrant, Barnes maze test ([1]; SAP-lesioned rats (SAP+W+SR), SR141716A 0.5 mg/kg together with WIN55,212-2 0.5 mg/kg i.p.)	effect on memory of a control rat (time in the target quadrant), Barnes maze test ([1]; CSF control rats (CSF+W3), 3 mg/kg i.p.)	time in the target quadrant, Barnes maze test, non-lesioned control group ([1]; CSF control rats (CSF+WIN), 0.5 mg/kg i.p. once daily)	time in the target quadrant, Barnes maze test, high dose ([1]; SAP-lesioned rats (SAP+W3), 3 mg/kg i.p.)	time in the target quadrant (memory deficit), Barnes maze test ([1]; SAP-lesioned rats (SAP+WIN), 0.5 mg/kg i.p. once daily, one hour before training/test, 0.5 mg/kg)	ability to remember the escape hole (time in the target quadrant), Barnes maze test [2]
Cc1c(C(=O)NN2CCCCC2)nn(-c2ccc(Cl)cc2Cl)c1-c1ccc(Cl)cc1 [SR141716A]	reversing the effect produced by treatment with WIN55,212-2 alone	–	–	–	–	–
Cc1c(C(=O)c2cccc3ccccc23)c2cccc3c2n1[C@H](CN1CCOCC1)CO3 [WIN55,212-2]	–	detrimental for memory	no effect	behave like a control rat	had no memory deficits; also recorded: spends the most amount of time in the target quadrant	capable of remembering it
